ChEMBL document CHEMBL3044806, “Target-site mutation associated with glufosinate resistance in Italian ryegrass (Lolium perenne L. ssp. multiflorum)” (Pest Manag Sci, 2012)

Legend:
Lolium multiflorum [1] = experiment: Resistance index, ratio of GR50 for glufosinate-resistant Lolium multiflorum MG (Italian ryegrass) expressing one amino acid substitution in plastidic GS2 gene aspartic acid for asparagine at position 171 to GR50 for glufosinate-susceptible Lolium multiflorum (Italian ryegrass)C2; type: functional
Lolium multiflorum [2] = experiment: (§1) Induction of ammonia accumulation in glufosinate-resistant Lolium multiflorum MG (Italian ryegrass) seedlings at 3-leaf stage assessed as ammonia level per gram of leaves fresh weight at 0.4 kg Ai/ha measured 96 hr after compound treatment under greenhouse conditions (reference value: 12.41 +/- 0.97 ug/g of leaves fresh weight); type: functional
Glutamine synthetase [3] = target: T1, Glutamine synthetase (Lolium perenne, UniProt C5IW59); experiment: Inhibition of glutamine synthetase in glufosinate-susceptible Lolium multiflorum C1 (Italian ryegrass) seedlings; conditions: read-out: I50
T1 sequence (C5IW59 whole entry): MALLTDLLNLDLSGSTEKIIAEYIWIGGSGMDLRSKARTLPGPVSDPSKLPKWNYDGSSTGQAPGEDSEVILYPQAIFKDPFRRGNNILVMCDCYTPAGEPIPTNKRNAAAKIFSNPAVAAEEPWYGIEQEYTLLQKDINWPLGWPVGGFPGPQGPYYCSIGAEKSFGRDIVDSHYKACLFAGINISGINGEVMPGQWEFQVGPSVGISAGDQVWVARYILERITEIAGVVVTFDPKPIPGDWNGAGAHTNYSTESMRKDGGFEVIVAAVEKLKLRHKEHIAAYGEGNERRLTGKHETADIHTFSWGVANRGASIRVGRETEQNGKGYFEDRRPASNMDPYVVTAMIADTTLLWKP

Lolium multiflorum [4] = experiment: as §1, with “glufosinate-susceptible” for “glufosinate-resistant”, “C2” for “MG”, “24” for “96”, “14.79” for “12.41”, “4.09” for “0.97”; type: functional
Lolium multiflorum [5] = experiment: as §1, with “glufosinate-susceptible” for “glufosinate-resistant”, “C1” for “MG”, “72” for “96”, “11.04” for “12.41”, “0.89” for “0.97”; type: functional
Lolium multiflorum [6] = experiment: as §1, with “glufosinate-susceptible” for “glufosinate-resistant”, “C1” for “MG”, “48” for “96”, “11.04” for “12.41”, “0.89” for “0.97”; type: functional
Lolium multiflorum [7] = experiment: Herbicidal activity against glufosinate-susceptible Lolium multiflorum C2 (Italian ryegrass) assessed as reduction above-ground dry weight measured after 15 days post compound treatment under greenhouse conditions; type: functional
Lolium multiflorum [8] = experiment: as §1, with “24” for “96”; type: functional
Lolium multiflorum [9] = experiment: as §1, with “48” for “96”; type: functional
Lolium multiflorum [10] = experiment: as §1, with “glufosinate-susceptible” for “glufosinate-resistant”, “C2” for “MG”, “14.79” for “12.41”, “4.09” for “0.97”; type: functional
Lolium multiflorum [11] = experiment: as §1, with “glufosinate-susceptible” for “glufosinate-resistant”, “multiflorum” for “multiflorum MG”, “three-leaf” for “3-leaf”, “24” for “96”, “11.04” for “12.41”, “0.89” for “0.97”; type: functional, C1
Lolium multiflorum [12] = experiment: Resistance index, ratio of GR50 for glufosinate-resistant Lolium multiflorum MG (Italian ryegrass) expressing one amino acid substitution in plastidic GS2 gene aspartic acid for asparagine at position 171 to GR50 for glufosinate-susceptible Lolium multiflorum (Italian ryegrass)C1; type: functional
Lolium multiflorum [13] = experiment: as §1, with “glufosinate-susceptible” for “glufosinate-resistant”, “C2” for “MG”, “72” for “96”, “14.79” for “12.41”, “4.09” for “0.97”; type: functional
Lolium multiflorum [14] = experiment: Herbicidal activity against glufosinate-susceptible Lolium multiflorum C1 (Italian ryegrass) assessed as reduction above-ground dry weight measured after 15 days post compound treatment under greenhouse conditions; type: functional
Glutamine synthetase [15] = target: T1, Glutamine synthetase; experiment: Inhibition of glutamine synthetase in glufosinate-resistant Lolium multiflorum MG (Italian ryegrass) seedlings; conditions: read-out: I50
Lolium multiflorum [16] = experiment: as §1, with “72” for “96”; type: functional
Glutamine synthetase [17] = target: T1, Glutamine synthetase; experiment: Inhibition of glutamine synthetase in glufosinate-susceptible Lolium multiflorum C2 (Italian ryegrass) seedlings; conditions: read-out: I50
Lolium multiflorum [18] = experiment: as §1, with “glufosinate-susceptible” for “glufosinate-resistant”, “C2” for “MG”, “48” for “96”, “14.79” for “12.41”, “4.09” for “0.97”; type: functional
Lolium multiflorum [19] = experiment: as §1, with “glufosinate-susceptible” for “glufosinate-resistant”, “C1” for “MG”, “11.04” for “12.41”, “0.89” for “0.97”; type: functional
Lolium multiflorum [20] = experiment: Herbicidal activity against glufosinate-resistant Lolium multiflorum MG (Italian ryegrass) expressing one amino acid substitution in plastidic GS2 gene aspartic acid for asparagine at position 171 assessed as reduction above-ground dry weight measured after 15 days post compound treatment under greenhouse conditions; type: functional

What does the source list for `CP(=O)(O)CCC(N)C(=O)O` (stereo not given) [GLUFOSINATE]?
Ratio (Lolium multiflorum [1]): 2.8; Activity (Lolium multiflorum [2]): 256 µg/g; IC50 (Glutamine synthetase [3]): 31 µM; Activity (Lolium multiflorum [4]): 244 µg/g; Activity (Lolium multiflorum [5]): 332 µg/g; Activity (Lolium multiflorum [6]): 304 µg/g; GR50 (Lolium multiflorum [7]): 0.18 KgAi/ha; Activity (Lolium multiflorum [8]): 165 µg/g; Activity (Lolium multiflorum [9]): 187 µg/g; Activity (Lolium multiflorum [10]): 384 µg/g; Activity (Lolium multiflorum [11]): 225 µg/g; Ratio (Lolium multiflorum [12]): 2.8; Activity (Lolium multiflorum [13]): 353 µg/g; GR50 (Lolium multiflorum [14]): 0.15 KgAi/ha; IC50 (Glutamine synthetase [15]): 2430 µM; Activity (Lolium multiflorum [16]): 212 µg/g; IC50 (Glutamine synthetase [17]): 137 µM; Activity (Lolium multiflorum [18]): 320 µg/g; Activity (Lolium multiflorum [19]): 428 µg/g; GR50 (Lolium multiflorum [20]): 0.45 KgAi/ha
